The subject of data set [1] is MCF7 breast carcinoma cells. Nature of the data set: Cell proliferation and viability, Trypan blue exclusion assay. The following applies: for IC50: 48 h treatment, read-out: IC50, inhibitory effect on MCF7 cell growth. It is filed as cell-based. The procedure:
FIGS. 5A-5F show the dose dependent effects of CCPS analogs on survival of MCF7 breast carcinoma cells in comparison to the activity of D-e-C6-ceramide, which is commonly used as a model of ceramide action. Cell proliferation and cell viability were determined by Trypan blue exclusion assay. These assays were performed using duplicate samples in two or three independent experiments.
Cell Proliferation: Cells were seeded into plates at a density of approx. 50% corresponding to 1×10^6 cells, in 10 ml of 10% FCS and after an over night incubation the cells were treated with LCL compounds at concentration 0-20 μM in ethanol (ethanol level was kept below 0.1%) and the changes in cell numbers after 48 h were determined and expressed as a percentage of the untreated controls.
Briefly, media was removed, cells were washed twice with PBS, detached using 1% Trypsin and centrifuged at 800 rpm. Cell pellets were resuspended in PBS and Trypan blue (Sigma Chemicals, St. Louis, Mo., USA) was added (1:1 dilution). Under light microscope, the percentage of unstained and stained cells was assessed.
To examine the anticancer activity of CCPS analogs of the invention, their inhibitory effect on MCF7 breast carcinoma cells were analyzed and compared to the activity of D-e-C6-ceramide, which is commonly used as a model of action for ceramides. Cell proliferation and cell viability were determined by Trypan blue exclusion assay.

For data set [2], the system named is Hep G2 cells.
Method: (§1) Dose-response curves of ceramides effect on viability of Hep G2 and MCF7 cells. Hep G2 and MCF7 cells were incubated at the condition described in Section 9.1. […] Cell viability was assessed 46 hours after addition of ceramides. Data are expressed as a mean+SEM of n=3.
(§2) Cell culture. Hep G2 cells (obtained from ATCC) were cultured in Minimum essential medium (Eagle) supplemented with 10% fetal bovine serum, 2 mM L-glutamine, non-essential amino acids, 1 mM sodium pyruvate, and 1.5 g/L sodium bicarbonate in humidified air (5% CO2) at 37° C. […] MCF7 cells (obtained from ATCC) were cultured in RPMI 1640 Medium supplemented with 10% fetal bovine serum and 2 mM glutamine in humidified air (5% CO2) at 37° C. All media were supplemented with 100 U/ml penicillin and 100 μg/ml streptomycin.
(§3) Measurement of cell viability. Hep G2 or MCF7 cells were plated at a density of 10^4 cells/well in 96-well plates in the medium described under Cell culture. After 24 hours of incubation, the cells were treated with ceramides for 46 hours in 2% fetal bovine serum medium. Cell viability was determined by MTT (3-[4,5-dimethylthiazol-2-yl]-2,5-diphenyl tetrasodium bromide) based assay according manufacture recommendation (Sigma, St. Louis, Mo.).
For data set [3], the system named is isolated rat liver mitochondria. As to the kind of experiment: Mitochondrial permeabilization (ΔΨ, large-amplitude swelling). The following applies: for IC50: read-out: IC50 of mitochondrial swelling, swelling 30 min after ceramide treatment.
Method: Effects of ceramides on ΔΨ value (17A) and mitochondrial large-amplitude swelling (17B, 17C) Mitochondria were incubated at the condition described under Section 9.1 except that 2 μM of TPP+ was present from the beginning of the experiment. Alamethicin (ALA), a pore-forming peptide (7 μg/mg protein), was added as indicated to induce permeabilization and determine the full extend of potential changes in the parameters of interest. Where indicated ceramides at 40 μM were present from the beginning of the experiment. FIGS. 17A and 17B show time-courses of ceramides effect on ΔΨ and mitochondrial swelling. […] Degree of mitochondrial swelling was determined 30 min after ceramide treatment.
Mitochondria were incubated at the condition described under Section 9.1 except that 2 μM of TPP+ was present from the beginning of the experiment. Trace 2, no addition. […] Trace 4, FCCP at 1 μM was present from the beginning of the experiment. […] Alamethicin (ALA), a pore-forming peptide (7 μg/mg protein), was added as indicated to induce permeabilization and determine the full extent of potential changes in the parameters of interest.
Mitochondria were incubated at the condition described under “Experimental procedures”. […] Trace 2, DCCD at 100 μM was added from the beginning of the experiment. Alamethicin (ALA) was added as indicated to determine full degree of permeabilization. […] The curve was generated from experiments similar to that depicted in traces 1 and 2 with indicated concentration of DCCD present from the beginning of the experiment.
Effect of hydrophobic cations on the time-course of mitochondrial large-amplitude swelling. Alamethicin (ALA), a pore-forming peptide (7 μg/mg protein), was added as indicated to induce permeabilization and determine the full extent of mitochondrial swelling. Where indicated cations at 60 μM were added to the incubation medium. Trace 1, no additions; trace 2, C2 pyridinium ceramide; trace 3, TMRM; trace 4, cetyl pyridinium; trace 5, TPP^+. Trace 3 was corrected for the absorbance of TMRM.
Time-course (A) and dose-response (B) of the effect of C6 pyridinium dihydroceramide on mitochondrial large-amplitude swelling. Mitochondria were incubated at the condition described under “Experimental procedures”. Alamethicin (ALA), a pore-forming peptide (7 μg/mg protein), was added as indicated to induce permeabilization and determine the full extent of mitochondrial swelling. Where indicated ceramides at 30 μM were added to the incubation medium. […] Trace 1, no additions; trace 2, C6 pyridinium ceramide; trace 3, C6 pyridinium dihydroceramide. […] Degree of mitochondrial swelling was determined 15 min after ceramide treatment. Trace 1, C6 pyridinium dihydroceramide; trace 2, C6 pyridinium ceramide.
The test system of data set [4] is UM-SCC-22A cells. As to the kind of experiment: MTT cell survival assay and isobologram studies. It counts as cell-based, human. The following applies: UM-SCC-22A, read-out: IC50, cell growth. Background: Formazan colour is commonly taken as a measure of viable cells.
In data set [5] the test system is isolated rat liver mitochondria. As to the kind of experiment: Cytochrome C release from mitochondria. It is filed as biochemical. The following applies: 40 μM; for cytochrome C released from mitochondria: 20 minutes of incubation. The procedure:
FIGS. 20A and 20B. […] Two min after the addition of CSA and EGTA samples were collected and treated for cytochrome C analysis. Alamethicin (ALA, 7 μg/mg protein) was added as indicated to determine the full degree of permeabilization and maximum cytochrome C release. […] Total amount of cytochrome C is 1.95 μg/mg protein.
Cytochrome C release from mitochondria. Aliquots of mitochondrial suspension were taken as indicated in figure legends and centrifuged at 15,000 g for 3 min. The supernatant and mitochondrial pellet were frozen and stored at […]. Cytochrome C in supernatants and pellets was quantified using the Quantikine cytochrome C ELISA kit (R&D Systems, Minniapolis, Minn.).

Data set [6] relates to MCF7 cells.
Method: as §1, §2, §3
Data set [7] relates to MCF7 cells. The conditions noted are these: 5 μM.
Method: Data are expressed as changes in the total ceramide level (pmol) or individual ceramide components (pmol) normalized to the phospholipid level, Pi (nmol) present in the Bligh & Dyer lipid extract and shown as changes to the control cells: Ceramide/Pi[pmol/nmol] (% Control).
Endogenous ceramide: ESI/MS/MS analysis of endogenous sphingoid bases, sphingoid base 1-phosphates and ceramide species was performed on a Thermo Finnigan TSQ 7000 triple quadrupole mass spectrometer, operating in a Multiple Reaction Monitoring (MRM) positive ionization mode using modified version (Bielawski, J. et al., SERMACS 2003, poster #68) of the protocol previously published (Sullard, M. C., Merrill, A. H., Sciences stke 2001/67/p 11).
Briefly, for the indicated points, media was removed, cells were washed twice with PBS, scraped into cold PBS (2×1.0 ml), transferred to glass vials and centrifuged for 5 min at 800 rpm. Cell pellets corresponding to ˜1×10^6 cells, were fortified with the internal standards IS (C17 base D-erythro-sphingosine: 17Sph, C17 sphingosine-1-phosphate: 17Sph-1P, N-palmitoyl-D-erythro-C13 sphingosine: 13CC16-Cer and N-heptadecanoyl-D-erythro-C17shingosine: 17CC17-Cer) and extracted (2×2 ml) into a one-phase solvent system with ethyl acetate/iso-propanol/water (60/30/10 v/v). One ml of this extract was used for Pi determination after lipid re-extraction by the Bligh and Dyer method. Remaining lipid extract was evaporated, reconstituted in 100 μl of methanol, and samples were injected on the Surveyor/TSQ 7000 LC/MS system and gradient eluted from the BDS Hypersil C8, 150×3.2 mm, 3 μm particle size column, with 1.0 mM methanolic ammonium formate/2 mM aqueous ammonium formate mobile phase system. […]
Quantitative analysis was based on the calibration curves generated by spiking an artificial matrix with the known amounts of the target analyte synthetic standards and an equal amount of the internal standards (IS). […]
Final data were adjusted and results were expressed as level of particular sphingolipids/Pi (pmol/nmol).
The test system of data set [8] is UM-SCC-22A cells. As to the kind of experiment: Cell cycle profiles by flow cytometry. It counts as cell-based, human. The conditions noted are these: 1 μM, 48 hr. The procedure:
FIGS. 13A to 13B. Roles of CCPS on cell cycle profiles, and telomerase activity of UM-SCC-22A cells. (FIG. 13A) The effects of D-e-C6—, D-e-C12- and L-th-C12-pyridinium ceramides (at 1 μM for 48 hr) on cell cycle profiles of UM-SCC-22A cells were determined and compared to that of untreated cells using flow cytometry as described in Materials and Methods. (FIG. 13B) The effects of 0, 100, 250 and 500 nM L-t-C6-Pyr-Cer (LCL-124) (lanes 1-4, respectively) at 96 hr treatment in UM-SCC-22A cells on telomerase activity was assessed using TRAP assay. Lanes 5 and 6 contain positive (+) and negative (−) controls. To examine whether C6-Pyr-Cer inhibits telomerase activity directly, cell extracts (as shown in lane 1) were incubated in the presence of various concentrations of L-th-C6-Pyr-ceramide (LCL-124; 10, 20 and 100 μM) and telomerase activity was determined using TRAP assay (lanes 7-9, respectively). The presence of non-telomeric 36 bp internal standard (IS) in the TRAP assay serves as a control for polymerase chain reaction, and used for quantitation/normalization of the activity of telomerase. The results shown are representative of at least two independent experiments.
Analysis of cell cycle profiles. The effects of pyridinium ceramides on the cell cycle profiles of A549 cells at 24 hr were analyzed in the presence of DNase-free RNase and propidium iodine (PI) by flow cytometry as described in Ogretmen et al., J. Biol. Chem. 2001; 276: 24901-24910, which is incorporated herein by reference in its entirety. Untreated cells were used as controls.
Analysis of cell cycle profiles. […] Untreated cells were used as controls.
On the technique in general: In flow cytometry, cells or beads pass a laser one at a time.

Data set [9] in a line: Solubility of ceramides and ceramidoids in water. The following applies: 37° C.
The subject of data set [10] is isolated rat liver mitochondria. Nature of the data set: Accumulation / binding in isolated mitochondria. The procedure: FIG. 16. […] Bar 2 and 4 (+FCCP), ΔΨ was dissipated by addition of FCCP at 1 μM plus antimycin A at 0.5 μg/mg protein from the beginning of the experiment. Results are expressed as mean+SEM of n=3, *p=0.01 versus control.
FIG. 23. […] Trace 3 was corrected for the absorbance of TMRM.
Preparation of mitochondria from rat liver.
Mitochondrial incubation medium.
Analysis of ceramides by mass spectroscopy (MS).

For data set [11], the system named is MCF7 cells. The following applies: 5 μM, 5 h. The protocol: FIGS. 4A-4C show the cellular levels of CCPS analogs. MCF 7 cells were treated with 5 μM concentration of CCPS analogs over the time and cellular level of the nonmetabolized CCPSs was measured by MS methodology as shown under Experimental. Results are expressed as % of concentration applied.
A parallel set of cells was used to determine cell proliferation and to prepare lipid extracts for MS analysis.
Briefly, for the indicated points, media was removed, cells were washed twice with PBS, scraped into cold PBS (2×1.0 ml), transferred to glass vials and centrifuged for 5 min at 800 rpm. Cell pellets corresponding to ˜1×10^6 cells, were fortified with the internal standards IS (C17 base D-erythro-sphingosine: 17Sph, C17 sphingosine-1-phosphate: 17Sph-1P, N-palmitoyl-D-erythro-C13 sphingosine: 13CC16-Cer and N-heptadecanoyl-D-erythro-C17shingosine: 17CC17-Cer) and extracted (2×2 ml) into a one-phase solvent system with ethyl acetate/iso-propanol/water (60/30/10 v/v). One ml of this extract was used for Pi determination after lipid re-extraction by the Bligh and Dyer method. Remaining lipid extract was evaporated, reconstituted in 100 μl of methanol, and samples were injected on the Surveyor/TSQ 7000 LC/MS system and gradient eluted from the BDS Hypersil C8, 150×3.2 mm, 3 μm particle size column, with 1.0 mM methanolic ammonium formate/2 mM aqueous ammonium formate mobile phase system. Peaks corresponding to the target analytes and IS were collected and processed using the Xcalibur software system.
Cellular level of CCPS analogs was established by MS methodology.

For data set [12] the following is noted: aqueous conditions at pH 4.5, 7.5 and 8.5 over 48 hrs.

In brackets after ≈: the same amount, converted by molar mass. Read-outs that look alike come from different tables or passages of the source. Some results are limits rather than exact numbers.

By IC50 is commonly meant the midpoint of a concentration-inhibition curve. Take “D-erythro-2-N-[6′-(1″-Pyridinium)-hexanoyl]-sphingosine Bromide [LCL29]”: the “inhibitory effect on MCF7 cell growth (in words)” value in data set [1] (48 h) was “caused inhibitory effect on MCF7 cell growth”. The IC50 in [1] is 1 µM; in data set [2], ~8 µM; in data set [3], ~27.5 µM; in data set [4] (48 hr), ~1 µM; in [4] (96 hr, DMEM, listed as D-e-C6-Pyr-Cer) it was ~0.3 µM; in data set [6], ~2 µM. Further, the “effect on ΔΨ and mitochondrial swelling (in words)” value in data set [3] (40 μM) is “complete dissipation of ΔΨ”. In addition, the “fold decrease in cytochrome C release with FCCP plus antimycin A” value in data set [5] (20 minutes) is ~3 fold. For the same molecule, the “cytochrome C released from mitochondria” value in [5] is on record as “about 40%”. The “effect on endogenous ceramide” value in data set [7] is recorded as “caused generation of an “early Cer””. Further, the cell cycle profile result in data set [8] was “significant increase in the population of cells in G0/G1”.

Broadly, the Solubility is how much of the substance goes into solution per volume. High values mean much dissolved substance, low ones little dissolved substance. Consider `CCCCCCCCCCCCC/C=C/[C@@H](O)[C@H](CO)NC(=O)CCCCC` [C6-Cer, D-erythro-C6-ceramide, reference compound], for which the “inhibition of MCF7 cell growth” value in [1] (10 μM, 48 h) is listed as ~35%. Moreover, the IC50 in [1] is 15 µM; in [2], ~31 µM; in [3], > 60 µM; in data set [6], ~16 µM. Also, the “Solubility at 37° C.” value in data set [9] came to 1.4 µg/mL (≈ 3.52 µM). Moreover, in data set [9], the “Solubility at 37° C. ([mM])” value was “(0.0036) mM”. Further, the “suppression of accumulation by dissipation of ΔΨ (antimycin plus FCCP)” value in data set [10] (10 μM) is given as “insensitive to dissipation of ΔΨ”. In addition, the association with mitochondria in data set [10] (10 μM, energized mitochondria) was 79.3%. The same molecule registered a binding to mitochondria in data set [10] (30 μM, at 4 min) of 5±0.8 nmol/mg protein. Further, in data set [5], the “cytochrome C released from mitochondria” value is “no effect on cytochrome C release”.

`CCCCCCCCCCCCC/C=C/[C@@H](O)[C@H](CO)NC(=O)CCCCCCCCCCC[n+]1ccccc1.[Br-]` [LCL88, D-erythro-2-N-[12′-(1″-Pyridinium)-dodecanoyl]-sphingosine Bromide]: the IC50 is 0.6 µM in data set [1]; ~1 µM in data set [4] (48 hr); ~0.3 µM in [4] (96 hr, DMEM). Besides, the “Cellular level, % of concentration applied” value in data set [11] is on record as 23%. Also, in [12], the “Stability (decomposition) by MS” value was “no evidence of their decomposition”. Further, the “effect on endogenous ceramide” value in data set [7] is “caused generation of an “early Cer””. Further, the cell cycle profile result in data set [8] is “significant increase in the population of cells in G0/G1”.

Take `CCCCCCCCCCCCC/C=C/[C@@H](O)[C@H](CO)NC(=O)CCCCCCCCCCCCCCC[n+]1ccccc1.[Br-]` [LCL30, D-erythro-2-N-[16′-(1″-Pyridinium)-hexadecanoyl]-sphingosine Bromide]: the “inhibitory effect on MCF7 cell growth (in words)” value in data set [1] (48 h) was “similar, concentration dependent (1.0-10.0 μM) inhibitory effect on cell growth”. Further, the 50% inhibitory concentration (IC50) in [1] (listed as LCL-30) is 1.6 µM; in data set [1], 1.8 µM; in data set [4] (48 hr) it was ~1 µM; in [4] (96 hr, DMEM), ~0.3 µM. The “Cellular level, % of concentration applied” value in data set [11] is given as ~17%. The “Stability (decomposition) by MS” value in [12] is on record as “no evidence of their decomposition”. The “effect on endogenous ceramide” value in data set [7] was “caused generation of an “early Cer””. The cell cycle profile result in data set [8] is reported as “significant increase in the population of cells in G0/G1”.

The values above are taken from US8093393B2, “Cationic ceramides, and analogs thereof, and their use for preventing or treating cancer” (MUSC Foundation for Research Development, priority 2004, dated 2012).
